From US20040002441A1, “Recombination modulators and methods for producing and using the same” (priority 2000, published 2004)
Entries after “also recorded” stand apart in the source; their conditions may differ. Where no end group is shown, it is not given here.

How the values were obtained:
[1] = target: T1, Vaccinia topoisomerase (type Ib) (Vaccinia virus, UniProt P68698); test: biochemical; settings: for IC50: IC50 for plasmid relaxation (activity reduced by one-half), pUC19 DNA
T1 construct: made in house; host or cells: Escherichia coli BL21 infected with bacteriophage λCE6

[2] = target: T2, E. coli topoisomerase I (type Ia) (Escherichia coli, UniProt P06612); test: biochemical; settings: for IC50: IC50, DNA relaxation (activity reduced by one-half), supercoiled DNA
T2 sequence (P06612 1-865): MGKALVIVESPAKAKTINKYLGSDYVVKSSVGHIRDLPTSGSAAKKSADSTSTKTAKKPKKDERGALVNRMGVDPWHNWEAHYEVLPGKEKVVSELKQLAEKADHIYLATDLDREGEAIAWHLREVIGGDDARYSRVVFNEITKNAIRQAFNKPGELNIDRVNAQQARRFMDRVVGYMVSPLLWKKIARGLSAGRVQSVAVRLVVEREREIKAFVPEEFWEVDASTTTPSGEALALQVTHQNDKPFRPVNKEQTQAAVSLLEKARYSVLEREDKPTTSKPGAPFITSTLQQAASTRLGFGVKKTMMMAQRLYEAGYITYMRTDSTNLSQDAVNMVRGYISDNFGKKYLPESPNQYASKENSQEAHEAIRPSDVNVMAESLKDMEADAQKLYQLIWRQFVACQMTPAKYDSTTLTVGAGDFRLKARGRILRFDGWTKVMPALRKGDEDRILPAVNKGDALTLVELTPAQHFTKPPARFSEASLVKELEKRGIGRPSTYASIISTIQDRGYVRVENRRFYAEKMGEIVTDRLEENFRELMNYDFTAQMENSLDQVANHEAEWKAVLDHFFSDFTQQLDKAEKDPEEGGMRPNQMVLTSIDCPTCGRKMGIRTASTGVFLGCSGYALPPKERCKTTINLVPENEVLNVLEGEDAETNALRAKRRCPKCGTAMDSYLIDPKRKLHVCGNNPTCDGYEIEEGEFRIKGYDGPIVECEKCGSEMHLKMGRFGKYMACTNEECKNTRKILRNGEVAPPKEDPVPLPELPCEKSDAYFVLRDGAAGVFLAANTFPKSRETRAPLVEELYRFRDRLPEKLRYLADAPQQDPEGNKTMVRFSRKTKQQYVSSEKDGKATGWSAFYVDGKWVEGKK
From the text: E. coli topoisomerase I (TopA) exemplifies the type IA topoisomerase family. Type IA enzymes are mechanistically and structurally unrelated to the topoisomerase IB/tyrosine recombinase superfamily of DNA strand transferases.

[3] = target: T3, bacteriophage P1 Cre protein (Escherichia phage P1, UniProt P06956); test: Cre-mediated recombination between two lox site substrates; format: biochemical
T3 sequence (P06956 1-343): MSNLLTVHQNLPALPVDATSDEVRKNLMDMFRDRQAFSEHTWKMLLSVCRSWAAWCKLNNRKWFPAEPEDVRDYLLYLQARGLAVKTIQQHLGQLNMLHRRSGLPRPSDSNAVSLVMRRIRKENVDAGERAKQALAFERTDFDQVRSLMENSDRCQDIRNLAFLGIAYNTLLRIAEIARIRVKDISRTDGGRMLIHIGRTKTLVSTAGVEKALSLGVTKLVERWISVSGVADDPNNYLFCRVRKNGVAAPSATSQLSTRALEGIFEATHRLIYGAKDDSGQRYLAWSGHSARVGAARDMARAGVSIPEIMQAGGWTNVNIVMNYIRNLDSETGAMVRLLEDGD
From the text: In order to test the specificity of peptide inhibition, we determined whether peptide KWWCRW affects the activity of a relative of the Int recombinase, namely the bacteriophage P1 Cre protein. Indeed, the peptide inhibits Cre-mediated recombination between two lox site substrates (Cassell and Segall, unpublished results).

double-stranded DNA = test: Peptide binding to DNA (electrophoretic mobility shift)
From the text: Do peptides KWWCRW and KWWWRW inhibit recombination by interfering with the formation of higher order complexes? The formation of intermediates in the bent-L pathway depends on Int contacting two different types of sites, the higher affinity arm sites and the lower affinity core sites flanking the loci of DNA cleavage and strand exchange (FIG. 9). […] To determine the effect of KWWCRW on interactions of Int with its core binding sites, we assembled the recombination complexes, known as intasomes or unimolecular complexes (UMC), on an attL variant substrate with 4 mutations in the IHF binding site, collectively known as QH′. These mutations prevent the specific binding of IHF to the QH′ sequence (Gardner and Nash, 1986), but still allow IHF to bind and bend DNA nonspecifically (Segall et al., 1994). […] We next tested the assembly of bent-L pathway intermediates. At 10 μM peptide, all of the labeled DNA was shifted into the well. However, at lower peptide concentrations that still inhibited recombination (0.1-1 μM), intermediates were assembled normally. In fact, one of the intermediates, the bimolecular complex (BMC), accumulates substantially in the presence of the peptide (see also FIG. 12). […] This agrees perfectly with our observations that suboptimal concentrations of peptide lead to accumulation of Holliday junctions (FIG. 10). […] The peptide shifts att site DNA even in the complete absence of Int (data not shown), confirming that KWWCRW interacts with DNA in a concentration-dependent fashion and in a manner that affects the mobility of the DNA much more drastically than expected for the size of the peptides.
Int Assays. Site-specific recombination and gel mobility shift assays were performed as described (Segall, 1998). Briefly, reactions were performed in a total volume of 10 or 20 μl and typically contained 1-2 nM radiolabeled att site as specified, 4 nM unlabeled att site, 100-300 ng salmon sperm DNA as nonspecific competitor, 44 mM Tris-Ci (pH 8.0), 60 mM KCl, 0.05 mg/ml bovine serum albumin, 7 mM Tris borate (pH 8.9), 5 mM spermidine, 1.3 mM EDTA, and 14.6% v/v glycerol. Any deviation from this formulation is noted in the figure legends. Gel shift reactions were incubated for 90 minutes at 37° C., layered without loading dyes onto 5% native polyacrylamide gel (29 acrylamide: 1 bis-acrylamide) and electrophoresed in 0.5× Tris borate EDTA buffer. Recombination reactions were stopped with 0.2× volume of 2% SDS, layered onto 5% polyacrylamide Tris/SDS gels, and electrophoresed in 1× Tris Tricine SDS buffer at 100 mA (Segall, 1998). Dried gels were visualized and quantitated using a Molecular Dynamics PhosphorImager.

[4] = peptide concentrations up to 42 μM

| Substance | IC50 [1] | IC50 [2] | effect on Cre-mediated recombination [3] | binding to DNA (double-stranded DNA) | peptide concentration that shifts the mobility of double-stranded DNA (double-stranded DNA; reactions with at least 50 ng salmon sperm DNA) | effect on DNA relaxation [1, 4] | effect on DNA relaxation [2, 4] | accumulation of Holliday junctions in Cre-mediated recombination [3] |
| --- | --- | --- | --- | --- | --- | --- | --- | --- |
| KWWCRW-NH2 [Peptide 59, KWWCRW] | 3.5 µM | 8 µM | inhibit | appear to bind to DNA; also recorded: binds double stranded DNA by itself | ≥ 5 µM |  |  |  |
| WKHYNY-NH2 [Peptide 52, WKHYNY] |  |  |  | do not bind double-stranded DNA |  | no effect | no effect | does cause accumulation of Holliday junctions |
| KWWWRW-NH2 [Peptide 56, KWWWRW] | 3 to 4 µM | 7 to 10 µM | inhibit | appear to bind to DNA |  |  |  |  |
